Results: patent publication US7390806B2, “Antibiotics containing borinic acid complexes and methods of use” (Anacor Pharmaceuticals, Inc., priority 2002, dated 2008)
≈ marks a conversion by molar mass, not a printed value. Like-named read-outs stand apart in the source and are kept apart here.

Legend:
[1] = system: E. faecium CT-26; assay: MIC determination, E. faecium CT-26; format: cell-based, Enterococcus faecium; conditions: for MIC E. faecium CT-26: Table 1; for MIC: Enterococcus faecium
[2] = system: S. pneumoniae ATCC 6301; assay: MIC determination, S. pneumoniae ATCC 6301; format: cell-based, Streptococcus pneumoniae; conditions: for MIC S. pneumoniae ATCC 6301: Table 1; for MIC: Streptococcus pneumoniae
[3] = system: E. faecalis ATCC 29212; assay: MIC determination, E. faecalis ATCC 29212; format: cell-based, Enterococcus faecalis; conditions: for MIC E. faecalis ATCC 29212: Table 1; for MIC: Enterococcus faecalis
[4] = system: S. aureus ATCC 29213; assay: MIC determination, S. aureus ATCC 29213; format: cell-based, Staphylococcus aureus; conditions: for MIC S. aureus ATCC 29213: Table 1; for MIC: Staphylococcus aureus
[5] = system: M. catarrhalis ATCC 25238; assay: MIC determination, M. catarrhalis ATCC 25238; format: cell-based; conditions: for MIC M. catarrhalis ATCC 25238: Table 1; for MIC: Moraxella catarrhalis
[6] = system: S. epidermidis ATCC 12228; assay: MIC determination, S. epidermidis ATCC 12228; format: cell-based, Staphylococcus epidermidis; conditions: for MIC S. epidermidis ATCC 12228: Table 1; for MIC: Staphylococcus epidermidis
[7] = ATCC6301, Table 1, read-out: MIC S. pneumoniae ATCC 6301
[8] = ATCC29212, Table 1, read-out: MIC E. faecalis ATCC 29212
[9] = ATCC25238, Table 1, read-out: MIC M. catarrhalis ATCC 25238

Row | Structure (SMILES) | MIC E. faecium CT-26 [1] | MIC S. pneumoniae ATCC 6301 [2] | MIC E. faecalis ATCC 29212 [3] | MIC S. aureus ATCC 29213 [4] | MIC M. catarrhalis ATCC 25238 [5] | MIC S. epidermidis ATCC 12228 [6] | also measured
1 | Oc1cccc2cccnc12 [Compound 33, 8-hydroxyquinoline] | 2 micrograms per ml | 1 micrograms per ml | 8 micrograms per ml | 1 micrograms per ml | 2 micrograms per ml | 1 micrograms per ml | –
2 | Oc1cccc2cccnc12 [Compound 46, 8-hydroxyquinoline] | 1 micrograms per ml | 1 micrograms per ml | 4 micrograms per ml | 1 micrograms per ml | 1 micrograms per ml | 1 micrograms per ml | –
3 | Oc1cccc2cccnc12 [Compound 92, 8-hydroxyquinoline] | 4 micrograms per ml | 2 micrograms per ml | 8 micrograms per ml | 2 micrograms per ml | 1 micrograms per ml | 1 micrograms per ml | –
4 | Oc1cccc2cccnc12 [Compound 79, 8-hydroxyquinoline] | 4 micrograms per ml | 2 micrograms per ml | 8 micrograms per ml | 2 micrograms per ml | 2 micrograms per ml | 2 micrograms per ml | –
5 | Oc1cccc2cccnc12 [Compound 42, 8-hydroxyquinoline] | 2 micrograms per ml | 1 micrograms per ml | 8 micrograms per ml | 1 micrograms per ml | 1 micrograms per ml | 1 micrograms per ml | –
6 | Nc1ccc2cccc(O)c2n1 [Compound 17] | – | – | – | – | – | – | MIC ([1]; CT26, read-out: MIC E. faecium CT-26): 8 µg/mL (≈ 49.9 µM); MIC ([2]; ATCC6301, read-out: MIC S. pneumoniae ATCC 6301): 2 µg/mL (≈ 12.5 µM); MIC ([3]; ATCC29212, read-out: MIC E. faecalis ATCC 29212): 8 µg/mL (≈ 49.9 µM); MIC ([4]; ATCC29213, read-out: MIC S. aureus ATCC 29213): 0.25 µg/mL (≈ 1.56 µM); MIC ([5]; ATCC25238, read-out: MIC M. catarrhalis ATCC 25238): 2 µg/mL (≈ 12.5 µM); MIC ([6]; ATCC12228, read-out: MIC S. epidermidis ATCC 12228): 2 µg/mL (≈ 12.5 µM)
7 | Oc1cccc2cccnc12 [Compound 59, 8-hydroxyquinoline] | 4 micrograms per ml | 1 micrograms per ml | 8 micrograms per ml | 2 micrograms per ml | 2 micrograms per ml | 1 micrograms per ml | –
8 | Oc1cccc2cccnc12 [Compound 45, 8-hydroxyquinoline] | 1 micrograms per ml | 1 micrograms per ml | 8 micrograms per ml | 1 micrograms per ml | 1 micrograms per ml | 1 micrograms per ml | –
9 | Oc1ccc(Cl)c2cccnc12 [Compound 49] | 2 micrograms per ml | 1 micrograms per ml | 16 micrograms per ml | 2 micrograms per ml | 0.25 micrograms per ml | 1 micrograms per ml | –
10 | Fc1cccc(B(Oc2cccc3cccnc23)C2CC2)c1 [Compound 70, (3-Fluorophenyl)cyclopropylborinic acid 8-hydroxyquinoline ester] | 2 micrograms per ml | 1 micrograms per ml | 64 micrograms per ml | 2 micrograms per ml | 0.5 micrograms per ml | 1 micrograms per ml | –
11 | Oc1cccc2cccnc12 [Compound 29, 8-hydroxyquinoline] | 2 micrograms per ml | 2 micrograms per ml | 8 micrograms per ml | 0.5 micrograms per ml | 0.5 micrograms per ml | 1 micrograms per ml | –
12 | N#Cc1ccc(O)c2ncccc12 [Compound 21, 5-cyano-8-hydroxyquinoline] | – | – | – | – | – | – | MIC ([1]; CT26, Table 1, read-out: MIC E. faecium CT-26): 8 µg/mL (≈ 47 µM); MIC [2, 7]: 2 µg/mL (≈ 11.8 µM); MIC [3, 8]: 16 µg/mL (≈ 94 µM); MIC ([4]; ATCC29213, Table 1, read-out: MIC S. aureus ATCC 29213): 0.5 µg/mL (≈ 2.94 µM); MIC [5, 9]: 0.25 µg/mL (≈ 1.47 µM); MIC ([6]; ATCC12228, Table 1, read-out: MIC S. epidermidis ATCC 12228): 4 µg/mL (≈ 23.5 µM)
13 | Oc1cccc2cccnc12 [Compound 28, 8-hydroxyquinoline] | 2 micrograms per ml | 2 micrograms per ml | 4 micrograms per ml | 0.5 micrograms per ml | 1 micrograms per ml | 1 micrograms per ml | –
14 | Oc1cccc2cccnc12 [Compound 60, 8-hydroxyquinoline] | 4 micrograms per ml | 2 micrograms per ml | 8 micrograms per ml | 2 micrograms per ml | 2 micrograms per ml | 1 micrograms per ml | –
15 | Oc1cccc2cccnc12 [Compound 48, 8-hydroxyquinoline] | 2 micrograms per ml | 1 micrograms per ml | 8 micrograms per ml | 1 micrograms per ml | 2 micrograms per ml | 1 micrograms per ml | –
16 | Oc1cccc2cccnc12 [Compound 87, 8-hydroxyquinoline] | 4 micrograms per ml | 2 micrograms per ml | 8 micrograms per ml | 2 micrograms per ml | 1 micrograms per ml | 1 micrograms per ml | –
17 | C#CB(Oc1cccc2cccnc12)c1ccccc1Cl [Compound 43, (2-Chlorophenyl)ethynylborinic acid 8-Hydroxyquinoline ester] | 2 micrograms per ml | 1 micrograms per ml | 8 micrograms per ml | 1 micrograms per ml | 1 micrograms per ml | 1 micrograms per ml | –
18 | Cc1ccnc2c(O)cccc12 [Compound 66] | 4 micrograms per ml | 1 micrograms per ml | 64 micrograms per ml | 2 micrograms per ml | 0.5 micrograms per ml | 1 micrograms per ml | –
19 | Oc1c(Cl)cc(Cl)c2cccnc12 [Compound 23] | 16 micrograms per ml | – | – | 0.5 micrograms per ml | – | 16 micrograms per ml | MIC [2, 7]: 8 µg/mL (≈ 37.4 µM); MIC [3, 8]: 64 µg/mL (≈ 299 µM); MIC [5, 9]: 0.12 µg/mL (≈ 0.561 µM)
20 | Oc1cccc2cccnc12 [Compound 78, 8-hydroxyquinoline] | 2 micrograms per ml | 1 micrograms per ml | 8 micrograms per ml | 2 micrograms per ml | 2 micrograms per ml | 1 micrograms per ml | –
21 | Oc1cccc2cccnc12 [Compound 27, 8-hydroxyquinoline] | 2 micrograms per ml | 1 micrograms per ml | 8 micrograms per ml | 0.5 micrograms per ml | 1 micrograms per ml | 1 micrograms per ml | –
22 | Oc1cccc2cccnc12 [Compound 95, 8-hydroxyquinoline] | 2 micrograms per ml | 2 micrograms per ml | 8 micrograms per ml | 2 micrograms per ml | 1 micrograms per ml | 1 micrograms per ml | –
23 | Oc1ccc(F)c2cccnc12 [Compound 35] | 4 micrograms per ml | 2 micrograms per ml | 8 micrograms per ml | 1 micrograms per ml | 2 micrograms per ml | 2 micrograms per ml | –
24 | Cc1ccnc2c(O)cccc12 [Compound 67] | 4 micrograms per ml | 1 micrograms per ml | 64 micrograms per ml | 2 micrograms per ml | 0.5 micrograms per ml | 1 micrograms per ml | –
25 | Oc1cccc2cccnc12 [Compound 61, 8-hydroxyquinoline] | 2 micrograms per ml | 1 micrograms per ml | 16 micrograms per ml | 2 micrograms per ml | 2 micrograms per ml | 1 micrograms per ml | –
